PubChem BioAssay AID256 (DTP/NCI, 2004)
Toxic doses and inconclusive results are not listed. The calls were made as follows: active = survival T/C of 150% or more; inactive = T/C below 125% in these data.

Test system: CD2F1 mice, L1210 leukemia ip, survival T/C
Test: NCI In Vivo Anticancer Drug Screen. Data for tumor model L1210 Leukemia (intraperitoneal) in CD2F1 (CDF1) mice
Conditions: higher = longer survival
Summary of the method: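 Vehicle-treated tumor-bearing mice served as controls (C) for compound-treated mice (T). Reported figure is T divided by C.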

[1] = endpoint: mean survival time, dose: 100.0 mg/kg/injection, schedule: Q01DX009 (ip), vehicle: saline with Tween-80
[2] = endpoint: mean survival time, dose: 100.0 mg/kg/injection, schedule: Q04DX003 (ip), vehicle: saline with Tween-80
[3] = endpoint: mean survival time, dose: 200.0 mg/kg/injection, schedule: Q01DX009 (ip), vehicle: saline with Tween-80
[4] = endpoint: mean survival time, dose: 200.0 mg/kg/injection, schedule: Q04DX003 (ip), vehicle: saline with Tween-80
[5] = endpoint: mean survival time, dose: 400.0 mg/kg/injection, schedule: Q01DX009 (ip), vehicle: saline with Tween-80
[6] = endpoint: mean survival time, dose: 400.0 mg/kg/injection, schedule: Q04DX003 (ip), vehicle: saline with Tween-80
[7] = endpoint: mean survival time, dose: 100.0 mg/kg/injection, schedule: Q01DX001 (ip), vehicle: saline with Tween-80

Measured: T/C

Cc1ccc(NS(=O)(=O)c2ccccc2)c([N+](=O)[O-])c1
inactive: [1] 97 % of control | [2] 105 % of control | [3] 95 % of control | [4] 97 % of control | [5] 100 % of control | [6] 100 % of control

C=C1CC(Cc2ccccc2)OC1=O (stereo not given)
inactive: endpoint: mean survival time, dose: 25.0 mg/kg/injection, schedule: Q01DX001 (ip), vehicle: saline with Tween-80 96 % of control | endpoint: mean survival time, dose: 50.0 mg/kg/injection, schedule: Q01DX001 (ip), vehicle: saline with Tween-80 101 % of control | [7] 101 % of control

COB1OB(OC)OB(OC)O1
inactive: endpoint: mean survival time, dose: 50.0 mg/kg/injection, schedule: Q01DX009 (ip), vehicle: saline with Tween-80 90 % of control | [1] 93 % of control | [3] 93 % of control | [5] 93 % of control

Cc1ccc(-c2c(O)c(Br)c(-c3ccc(C)cc3C)c(O)c2Br)c(C)c1
inactive: [1] 97 % of control | [2] 93 % of control | [3] 97 % of control | [4] 90 % of control | [5] 94 % of control | [6] 92 % of control

Cc1cc(Nc2ccc3c(c2)OCO3)c2cc3c(cc2n1)OCO3
inactive: endpoint: median survival time, dose: 25.0 mg/kg/injection, schedule: Q01DX009 (ip), vehicle: Klucel (hydroxypropylcellulose) (HPC) 105 % of control | endpoint: median survival time, dose: 50.0 mg/kg/injection, schedule: Q01DX009 (ip), vehicle: Klucel (hydroxypropylcellulose) (HPC) 121 % of control | endpoint: median survival time, dose: 100.0 mg/kg/injection, schedule: Q01DX009 (ip), vehicle: Klucel (hydroxypropylcellulose) (HPC) 94 % of control

c1ccc(C2=NNC(c3ccccc3)=NN2)cc1
inactive: endpoint: mean survival time, dose: 100.0 mg/kg/injection, schedule: Q01DX001 (ip), vehicle: other 105 % of control | [7] 101 % of control | endpoint: mean survival time, dose: 200.0 mg/kg/injection, schedule: Q01DX001 (ip), vehicle: other 94 % of control | endpoint: mean survival time, dose: 200.0 mg/kg/injection, schedule: Q01DX001 (ip), vehicle: saline with Tween-80 97 % of control | endpoint: mean survival time, dose: 400.0 mg/kg/injection, schedule: Q01DX001 (ip), vehicle: other 103 % of control | endpoint: mean survival time, dose: 400.0 mg/kg/injection, schedule: Q01DX001 (ip), vehicle: saline with Tween-80 103 % of control

O=C(Nc1ccccn1)OCc1ccccc1
inactive: endpoint: mean survival time, dose: 100.0 mg/kg/injection, schedule: Q04DX002 (ip), vehicle: saline with Tween-80 112 % of control | endpoint: mean survival time, dose: 200.0 mg/kg/injection, schedule: Q04DX002 (ip), vehicle: saline with Tween-80 101 % of control | endpoint: mean survival time, dose: 400.0 mg/kg/injection, schedule: Q04DX002 (ip), vehicle: saline with Tween-80 97 % of control

COC(=O)/C=C/c1ccc(OC(=O)c2ccccc2)cc1
inactive: [1] 95 % of control | [3] 96 % of control | [5] 98 % of control

Nc1cc(Br)cc(Br)c1
inactive: [2] 94 % of control | [4] 105 % of control | [6] 94 % of control

CCOC1(OCC)C2C=CC1C1C(=O)OC(=O)C12 (stereo not given)
inactive: endpoint: mean survival time, dose: 75.0 mg/kg/injection, schedule: Q01DX001 (ip), vehicle: saline 103 % of control | endpoint: mean survival time, dose: 150.0 mg/kg/injection, schedule: Q01DX001 (ip), vehicle: saline 108 % of control | endpoint: mean survival time, dose: 300.0 mg/kg/injection, schedule: Q01DX001 (ip), vehicle: saline 102 % of control

Cc1cc([N+](=O)[O-])c(S(N)(=O)=O)c([N+](=O)[O-])c1
inactive: endpoint: mean survival time, dose: 25.0 mg/kg/injection, schedule: Q01DX009 (ip), vehicle: Klucel (hydroxypropylcellulose) (HPC) 98 % of control | endpoint: mean survival time, dose: 50.0 mg/kg/injection, schedule: Q01DX009 (ip), vehicle: Klucel (hydroxypropylcellulose) (HPC) 95 % of control

Cc1ccccc1OS(=O)(=O)c1ccccc1
inactive: endpoint: mean survival time, dose: 100.0 mg/kg/injection, schedule: Q01DX009 (ip), vehicle: acetone 98 % of control | endpoint: mean survival time, dose: 100.0 mg/kg/injection, schedule: Q04DX003 (ip), vehicle: acetone 100 % of control | endpoint: mean survival time, dose: 200.0 mg/kg/injection, schedule: Q01DX009 (ip), vehicle: acetone 98 % of control | endpoint: mean survival time, dose: 200.0 mg/kg/injection, schedule: Q04DX003 (ip), vehicle: acetone 94 % of control | endpoint: mean survival time, dose: 400.0 mg/kg/injection, schedule: Q01DX009 (ip), vehicle: acetone 96 % of control | endpoint: mean survival time, dose: 400.0 mg/kg/injection, schedule: Q04DX003 (ip), vehicle: acetone 96 % of control

CCCCNC(=S)N(CCCC)CCCC
inactive: [1] 102 % of control | [3] 87 % of control
